Data reported in patent US11440906B2, “Biguanide derivatives and their rearrangement products for use in the treatment of cancer” (CENTRE NATIONAL DE LA RECHERCHE SCIENTIFIQUE, priority 2017, dated 2022).

What was measured:
murine melanoma BP cells = test: Murine melanoma BP cells allografted into C57BL6 mice; type: in vivo, C57BL6/J mice; conditions: BP cells allograft, immunocompetent C57BL/6, 0.7 mg/mouse/day intraperitoneal; FIG. 7A
Procedure: In Vivo Murine Cancer Model Animal experiments were carried out in accordance with the Declaration of Helsinki and were approved by a local ethical committee CIEPAL (Comite Institutionnel d'Ethique Pour l'Animal de Laboratoire-Azur). Female C57BL6/J mice were obtained at 5 weeks of age from Envigo Laboratory (Gannat, France). Mice were inoculated subcutaneously with BP melanoma cells (1×10^6 cells/mouse). After tumor apparition (+5 days), animals received intraperitoneal injection of Labrafil (vehicle) or CRO15 (0.7 mg/mouse/day). The growth tumor curves were determined by measuring the tumor volume using the equation V=(L*W2)/2, (V=tumor volume, W=tumor width, L=tumor length). At the end of the experiment, mice were euthanized by cervical dislocation.

normal human cells = test: Viability test with CRO15, normal human cells; type: cell-based; conditions: 5 μM, 48 hours; FIG. 1E
Procedure: Fresh sterile tissues were obtained from surgical waste from patients diagnosed with metastatic melanoma at the Nice CHU hospital. Epidermal cell suspensions were obtained from foreskins of Caucasian children by overnight digestion in phosphate-buffered saline containing 0.5% dispase grade II at 4° C., followed by a 20 min digestion with 0.05% trypsin-0.02% EDTA in phosphate-buffered saline (V/V) at 37° C. Human primary melanocytes were grown in MCDB153 medium supplemented with 2% FCS, 0.4 μg/ml hydrocortisone, 5 μg/ml insulin, 16 nM phorbol-12 myristate 13-acetate, 1 ng/ml basic fibroblast growth factor, 10 μg/ml bovine pituitary extract and penicillin/streptomycin (100 U/ml/50 μg/ml). […]
For trypan blue staining, […] of cells (melanoma and normal human cells) were aseptically transferred to a 1.5 mL clear Eppendorf tube and incubated for 3 min at room temperature with an equal volume of 0.4% trypan blue solution. Viable cells were counted and the results are expressed as the percentage of the value of control cells. […]
Different melanoma cell lines with various mutations, patient cells with various mutations and normal human cells, were treated with 5 μM of CRO15 for 48 hours or DMSO (Control). At the end of stimulation, viable cells were counted using the trypan blue dye exclusion method. […]

WM9 cells = test: Resistance development in WM9 cells after 8 weeks of drug exposure; type: cell-based, human; conditions: 8 weeks increasing concentrations, then 10 μM 48 hrs; FIG. 7B
Source text: Different melanoma cell lines were purchased from the American Tissue Culture Collection: A375 and WM9 cells are mutated on B-Raf, CDKN2A and PTEN proteins; SKmel28 cells are mutated on B-Raf and P53 proteins; 1205Lu cells are mutated on B-Raf and PTEN proteins; G-361 cells are mutated on B-Raf and CDKN2A proteins; C8161 cells are mutated on B-Raf and K-Ras proteins; WM3912 cells are mutated on B-Raf and CDKN2A proteins; MeWo cells are mutated on P53 and CDKN2A proteins; WM3918 presents no mutations on characteristic proteins.
(§1) For trypan blue staining, […] of cells (melanoma and normal human cells) were aseptically transferred to a 1.5 mL clear Eppendorf tube and incubated for 3 min at room temperature with an equal volume of 0.4% trypan blue solution. Viable cells were counted and the results are expressed as the percentage of the value of control cells. All the experiments are performed 3 times in triplicate.
To study weither melanoma cells WM9 would develop resistance to CRO15, these cells were kept in culture during 8 weeks in presence of increasing concentrations of either, DMSO (control), PLX4032, CRO15 or MTF255. The starting concentration was 0.2 μM.
Along with non-treated WM9S (naive cells), drug-treated WM9S were then stimulated with 10 μM of each drug during 48 hrs. Viable cells were counted using the trypan blue dye exclusion method. […]

Melanoma cell line DR6 = test: Viability test on double resistant cells to BRAF and MEK inhibitors; type: cell-based; conditions: 5 μM or 10 μM, 24 hours; FIG. 5
Procedure: as §1
Melanoma cell line DR6 resistant cells to B-Raf inhibitor (Vemurafenib=PLX4032) and to MEK inhibitor (Cobimetinib) were treated with DMSO (control), with 5 μM or 10 μM of CRO15 or with a combination of 1 μM of vemurafenib and 0.5 μM of cobimetinib. After 24 hours of stimulation, viable cells were counted using the trypan blue dye exclusion method. The results are normalized as percentages compare to the control. Error bars represents ±SEM of triplicate.

Nc1nc(Nc2ccccc2SSc2ccccc2Nc2nc(N)nc(C(Cl)(Cl)Cl)n2)nc(C(Cl)(Cl)Cl)n1 [CRO15, N2,N2′-(disulfanediylbis(2,1-phenylene))bis(6-(trichloromethyl)-1,3,5-triazine-2,4-diamine)]
tumor growth (tumor volume) (murine melanoma BP cells): no tumor growth | viability of normal cells (toxicity) (normal human cells): not toxic for normal cells | cell viability of WM9 after 8 weeks of treatment and stimulation with the drug (WM9 cells): still able to induce cell death | cell viability of DR6 cells (Melanoma cell line DR6): induces a decrease of the cell viability
